Test results reported in patent publication US20230203482A1, “Methods of Rescuing Stop Codons via Genetic Reassignment with ACE-tRNA” (THE WISTAR INSTITUTE OF ANATOMY AND BIOLOGY, priority 2017, published 2023).

B1: Glychr19.trna2: top performing glycine ACE-tRNA UGA suppressor, SEQ ID NO: 53 (nucleic acid)
chain: GCGTTGGTGGTATAGTGGTTAGCATAGCTGCCTTCAAAGCAGTTGACCCGGGTTCGATTCCCGGCCAACGCA
modifications: chemistry not fully specified

Tested on: native stop codons (TAA, TAG, TGA) of HEK293 transcripts
Test: Ribosome footprint profiling of transcriptome-wide 3′UTRs
Assay type: cell-based, human
Conditions: for ribosome occupancy at each nucleotide in the 3′UTR downstream of stop codons: HEK293, log 2-fold change versus control; for readthrough of native stop codons / global translation termination: HEK293, summary in discussion
Text: The question was raised whether ACE-tRNAs that show efficacious suppression of premature stop codons may also induce global readthrough of native stop codons. To address this potential “off target” suppression, a transcriptome-wide quantitative profile of actively engaged ribosomes on all cellular transcripts was obtained by generating libraries of ribosome footprints from HEK293 cells expressing exogenous ACE-tRNAs or a control mock plasmid (puc57GG). Streptomycin was removed from the growth media to prevent readthrough artifacts. For comparison, the ribosome footprint library was also generated from cells in the presence or absence of G418 (150 μM, 48 hours). […] Only transcripts with a minimum threshold of 5 RPKM in the coding sequence and 0.5 RPKM in the 3′UTR in two replicate libraries were included for the quantitation comparison (254 transcripts in G418 and 495-748 transcripts in ACE-tRNAs). […] ACE-tRNAs examined here had no detectable change of 3′UTR ribosome density with the exception of ACE-tRNA Gln-UAA and Arg-UGA which induced approximately a 2-fold increase in 3′UTR ribosome density for the cognate stop codon complimentary to the ACE-tRNA anticodon. Understanding the biological significance of 2-fold readthrough of protein stops will require further study, but this effect is substantially lower compared to the 100- to 1000-fold suppression of PTC for the same ACE-tRNA.
Multiple in-frame stop codons are frequently found at the end of genes^37-39 and may cause a minor difference in overall 3′UTR ribosome density for ACE-tRNA and G418 treatment. Ribosome occupancy was examined at each nucleotide in the 3′UTR within a 60 nt region downstream of the stop codons. […] Reads were normalized per total million-mapped reads, compared against control cells, and reported as a log 2-fold change as in panel A. More than 5,200 transcripts were mapped to at least 1 footprint in the region of interest. […] Taken together, the ribosome profiling data argue that efficiency of native stop codon suppression by ACE-tRNAs is generally low, and markedly less than the level of PTC suppression.
Ribosome Footprint Profiling Library preparation. HEK293 cells transiently transfected with ACE-tRNAs and control plasmid (puc57GG) were grown in standard grown media in the absence of Pen-Strep for 48 h. Libraries were prepared as described^55, with a few modifications. Briefly, cells were rapidly cooled by addition of ice-cold PBS, lysed in lysis buffer (20 mM Tris-HCl/pH7.4, 150 mM NaCl, 5 mM MgCl2, 1 mM DTT, 1% (v/v) Triton X-100, and 25 U ml^−1 Turbo DNase I) for 10 min on ice, and triturated with ten times through a 26-G needle. After clearance by centrifugation at 16,000 g for 10 min at 4° C., the lysates were digested with 100 U RNase I (Ambion, USA) per A260 lysate at room temperature for 45 min with gentle agitation prior to adding 200 U RiboLock RNase Inhibitor (Thermo Scientific). Ribosome protected mRNA fragments were then isolated by loading lysates onto a 1M sucrose cushion prepared in modified polysome buffer (20 mM Tris-HCl/pH7.4, 150 mM NaCl, 8.5 mM MgCl2, 0.5 mM DTT, 20 U ml^−1 RiboLock RNase Inhibitor) and centrifugated at 70,000 rpm at 4° C. for 2 h using a Beckmen TLA-110 rotor. Ribosome pellets containing mRNA footprints were extracted using TRIzol and separated on a denaturing 12% polyacrylamide gel containing 8M urea. RNA fragments with sizes ranging from 26 to 34 nt were manually excised from the gel stained with SYBR Gold (Invitrogen) and isolated to generate the ribosome-protected fragment library. Contaminating rRNA fragments depleted using a Ribo-Zero kit (Illumina). 3′ Oligonucleotide adaptor ligation, reverse transcription, circularization, and secondary rRNA depletion using biotinylated rRNA depletion oligos (Table 9) were performed as described^55. Libraries were barcoded using indexing primers for each sample during PCR amplification. […]

| Molecule | ribosome occupancy at each nucleotide in the 3′UTR downstream of stop codons | readthrough of native stop codons / global translation termination |
| --- | --- | --- |
| Trpchr17.trna39: top performing tryptophan ACE-tRNA UGA suppressor, SEQ ID NO: 48 | no observable change of ribosome occupancy | no significant effect on global translation termination |
| B1 | no observable change of ribosome occupancy | no significant effect on global translation termination |
